# Reference: US6169181A, “Compounds useful to treat retroviral infections” (Pharmacia & Upjohn Company, priority 1998, dated 2001)
# pKi: −log10 of the molar value. “And” between values parts separate entries of the source, which are not always exact repeats. Identical values can stand only once. Like-named read-outs stand apart in the source and are kept apart here.
# How the values were obtained:
# [1] = target: T1, single chain tethered (tandem) HIV protease (HIV-1 M:B_HXB2R, UniProt P04585); assay: Tandem HIV protease assay; type: biochemical; conditions: Table II, enzyme HIV1TANDEM; for pKi: read-out: FITC KI
# T1 construct: purified enzyme, FITC/biotin substrate assay
# Experimental: In the enzyme inhibition assay described above, the sensitivity of Ki value determination is in part limited by the ability to continue to lower the enzyme concentration for compounds with high binding affinity. To prevent de-dimerization at low enzyme concentration, a tandemly linked enzyme is prepared in which the two monomers are covalently linked by an appropriate stretch of amino acid residues. Using the latter enzyme, the sensitivity of the inhibition assay is improved since much lower enzyme concentration can be utilized, as compared to the condition using the wild-type enzyme.
# The starting inhibitor concentrations are determined based on preliminary enzyme inhibition screening results which estimate the expected potency of the inhibitor. Inhibitor concentrations are then prepared using the Biomek 1000 (Beckman) and the Quadra 96 (Tomtec). Substrate (biotinylated at the amino terminal arginine and fluorescently labeled with fluorescein at the carboxyl terminal lysine), inhibitor and the tandem enzyme are allowed to react in solution at pH 5.5 (buffers identical to those used with the native dimeric enzyme) in the dark for 96 hours. Streptavidin coated polystyrene beads are added to stop the reaction. The labeled cleavage product is separated from unreacted substrate via filtration. Residual fluorescence is quantitated with the Idexx SM2000 (Idexx) and the resulting data are analyzed using the NLLSF program.
# HIV-1 protease = HIV-1 protease (Human immunodeficiency virus type 1 group M subtype B, UniProt P04585); assay: biochemical
# How it was run: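 Percent inhibition came from fluorescence of FITC-tagged cleavage product, separated by filtration from uncleaved substrate captured on streptavidin-coated beads. The enzyme (10 μl of 0.1 μM) and compound acted on a biotin/FITC dual-labelled peptide for one hour at room temperature in the dark. The reaction ran in 0.1 M sodium acetate, pH 5.5, with 1.0 M NaCl and 0.05% NP-40.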
# [2] = Table II, enzyme HIV-1, DOSE 0.123 (unit not given)
# [3] = Table II, enzyme HIV-1, DOSE 0.370 (unit not given)
# [4] = Table II, enzyme HIV-1, DOSE 1.100 (unit not given)
# [5] = Table II, enzyme HIV-1, DOSE 3.300 (unit not given)
# [6] = Table II, enzyme HIV-1, DOSE 10.000 (unit not given)
# [7] = Table II, enzyme HIV-1, DOSE 30.000 (unit not given)
structure (smiles),measurement,setting,value
"CC(C)CC1(CC(C)C)CC(O)=C(C(c2cccc(NS(=O)(=O)c3cn(C)cn3)c2)C(C)(C)C)C(=O)O1 (racemic) [Example 305, N-[3-(1-[5,6-Dihydro-6,6-diisobutyl-4-hydroxy-2-oxo-2H-pyran-3-yl]-2,2-dimethylpropyl)-phenyl]-1-methyl-1H-imidazole-4-sulfonamide]",pKi,[1],9.40
same,PROTEASE % INHIB.,HIV-1 protease; [2],99.99%
same,PROTEASE % INHIB.,HIV-1 protease; [3],110.76%
same,PROTEASE % INHIB.,HIV-1 protease; [4],114.35%
same,PROTEASE % INHIB.,HIV-1 protease; [5],110.88%
same,PROTEASE % INHIB.,HIV-1 protease; [6],102.01%
same,PROTEASE % INHIB.,HIV-1 protease; [7],57.83%
"CCC[C@@]1(CCc2ccccc2)CC(O)=C([C@H](CC)c2cccc(NS(=O)(=O)c3ccc(C#N)cn3)c2)C(=O)O1 (single isomer, unassigned) [Example 335, N-[3-{1(R or S)-(4-Hydroxy-5,6-dihydro-2-oxo-6(R or S)-phenethyl-6-propyl-2H-pyran-3-yl)propyl}phenyl]-5-cyanopyridine-2-sulfonamide]",pKi,[1],10.40
same,PROTEASE % INHIB.,HIV-1 protease,60.07 and 99.75 and 97.05 and 92.06 and 89.77 and 76.25
"CCC[C@]1(CCc2ccccc2)CC(O)=C([C@H](CC)c2cccc(NS(=O)(=O)c3cn(C)cn3)c2)C(=O)O1 (single isomer, unassigned) [Example 340, N-[3-{1(R or S)-(4-Hydroxy-5,6-dihydro-2-oxo-6(S or R)-phenethyl-6-propyl-2H-pyran-3-yl)propyl}phenyl]-1-methyl-1H-imidazole-4-sulfonamide]",pKi,[1],10.22
same,PROTEASE % INHIB.,HIV-1 protease,80.58 and 90.49 and 90.16 and 91.57 and 89.49 and 71.99
"CCC[C@@]1(CCc2ccccc2)CC(O)=C([C@@H](c2cccc(NS(=O)(=O)c3ccc(C#N)cn3)c2)C(C)(C)C)C(=O)O1 (single isomer, unassigned) [Example 300, 5-Cyano-N-[3(R or S)-(1-[5,6-dihydro-4-hydroxy-2-oxo-6(R or S)-(2-phenylethyl)-6-propyl-2H-pyran-3-yl]-2,2-dimethylpropyl)-phenyl]-2-pyridinesulfonamide]",pKi,[1],10.00
same,PROTEASE % INHIB.,HIV-1 protease,90.61 and 99.05 and 111.45 and 109.19 and 105.56 and 104.91
"CCC(C1=C(O)CC(CCc2ccccc2)(CCc2ccccc2)OC1=O)c1cccc(NS(=O)(=O)c2cn(C)cn2)c1 (centres unmarked) [Example 330, N-[3-{1-(4-Hydroxy-5,6-dihydro-2-oxo-6,6-bis(2-phenylethyl)-2H-pyran-3-yl)propyl}phenyl]-1-methyl-1H-imidazole-4-sulfonamide]",pKi,[1],9.28
same,PROTEASE % INHIB.,HIV-1 protease; [2],93.74%
same,PROTEASE % INHIB.,HIV-1 protease; [3],94.32%
same,PROTEASE % INHIB.,HIV-1 protease; [4],93.66%
same,PROTEASE % INHIB.,HIV-1 protease; [5],85.63%
same,PROTEASE % INHIB.,HIV-1 protease; [6],87.9%
same,PROTEASE % INHIB.,HIV-1 protease; [7],69.82%
"CCCC1(CCc2ccccc2)CC(O)=C(C(c2cccc(NS(=O)(=O)c3cn(C)cn3)c2)C(C)(C)C)C(=O)O1 (single isomer, unassigned) [Example 307, N-[3(R or S)-[1-(5,6-Dihydro-4-hydroxy-2-oxo-6(R or S)-[2-phenylethyl]-6-propyl-2H-pyran-3-yl)-2,2-dimethylopropyl]phenyl]-1-methyl-1H-imidazole-4-sulfonamide]",pKi,[1],10.14
same,PROTEASE % INHIB.,HIV-1 protease; [2],77.39%
same,PROTEASE % INHIB.,HIV-1 protease; [3],99.85%
same,PROTEASE % INHIB.,HIV-1 protease; [4],107.87%
same,PROTEASE % INHIB.,HIV-1 protease; [5],93.34%
same,PROTEASE % INHIB.,HIV-1 protease; [6],83.49%
same,PROTEASE % INHIB.,HIV-1 protease; [7],69.74%
"CCCC1(CCc2ccccc2)CC(O)=C(C(c2cccc(NS(=O)(=O)c3ccc(N)cn3)c2)C(C)(C)C)C(=O)O1 (centres unmarked) [Example 299, 5-Amino-N-[3-(1-[5,6-dihydro-4-hydroxy-2-oxo-6-(2-phenylethyl)-6-propyl-2H-pyran-3-yl]-2,2-dimethylpropyl)phenyl]-2-pyridinesulfonamide]",pKi,[1],9.70
same,PROTEASE % INHIB.,HIV-1 protease,83.51 and 104.76 and 117.95 and 115.61 and 128.03 and 102.89
"CCCC1(CCC)CC(O)=C(C(c2cccc(NS(=O)(=O)c3cn(C)cn3)c2)C(C)(C)C)C(=O)O1 (single isomer, unassigned) [Example 318, N-[3(R or S)-(1-[5,6-Dihydro-6,6-dipropyl-4-hydroxy-2-oxo-2H-pyran-3-yl]-2,2-dimethylpropyl)-phenyl]-1-methyl-1H-imidazole-4-sulfonamide]",pKi,[1],10.72
same,PROTEASE % INHIB.,HIV-1 protease; [2],98.06%
same,PROTEASE % INHIB.,HIV-1 protease; [3],106.35%
same,PROTEASE % INHIB.,HIV-1 protease; [4],101.88%
same,PROTEASE % INHIB.,HIV-1 protease; [5],88.73%
same,PROTEASE % INHIB.,HIV-1 protease; [6],94.49%
same,PROTEASE % INHIB.,HIV-1 protease; [7],82.83%
"CCCC1(CCc2ccccc2)CC(O)=C([C@@H](CC)c2cccc(NS(=O)(=O)c3ccc(C(F)(F)F)cn3)c2)C(=O)O1 (stereo partly drawn) [Example 374, N-[3-[1-(S)-[5,6,-Dihydro-4-hydroxy-2-oxo-6-(2-phenylethyl)-6-propyl-2H-pyran-3-yl]propyl]phenyl]-5-(triflouromethyl)-2-pyridinesulfonamide]",PROTEASE % INHIB.,[1]; DOSE 0.123 (unit not given),78.97%
same,PROTEASE % INHIB.,[1]; DOSE 0.370 (unit not given),82.14%
same,PROTEASE % INHIB.,[1]; DOSE 1.100 (unit not given),84.98%
same,PROTEASE % INHIB.,[1]; DOSE 3.300 (unit not given),87.70%
same,PROTEASE % INHIB.,[1]; DOSE 10.000 (unit not given),95.25%
same,PROTEASE % INHIB.,[1]; DOSE 30.000 (unit not given),80.11%
same,pKi,[1],10.51
"CC(C)(C)C(C1=C(O)CC(CCc2ccccc2)(CCC(F)(F)F)OC1=O)c1cccc(NS(=O)(=O)c2ccc(N)cn2)c1 (single isomer, unassigned) [Example 271, 5-amino-N-[3-(R or S)-[1-[5,6-dihydro-4-hydroxy-2-oxo-6-(2-phenethyl)-6-(R or S)-(3,3,3-trifluoropropyl)-2H-pyran-3-yl]-2,2-dimethylpropyl]phenyl]-2-pyridinesulfonamide]",pKi,[1],10.29
"Cn1cnc(S(=O)(=O)Nc2cccc(C(C3=C(O)CC(CCc4ccccc4)(CCc4ccccc4)OC3=O)C(C)(C)C)c2)c1 (single isomer, unassigned) [Example 357, N-[3-{1(R or S)-(4-Hydroxy-5,6-dihydro-2-oxo-6,6-bis(2-phenylethyl)-2H-pyran-3-yl)-2,2-dimethylpropyl}phenyl]-1-methyl-1H-imidazole-4-sulfonamide]",pKi,[1],7.31
"CCCC1(CCc2ccccc2)CC(O)=C(C(c2cccc(NS(=O)(=O)c3cc(C(F)(F)F)ccn3)c2)C(C)(C)C)C(=O)O1 (single isomer, unassigned) [Example 296, 4-Trifluoromethyl-N-[3(R or S)-[1-[5,6-dihydro-4-hydroxy-2-oxo-6(R or S)-(2-phenethyl)-6(R or S)-n-propyl-2H-pyran-3-yl]-2,2-dimethylpropyl]-phenyl]-2-pyridinesulfonamide]",pKi,[1],10.38
"CC(C)(C)C(C1=C(O)CC(CCc2ccccc2)(CCC(F)(F)F)OC1=O)c1cccc(NS(=O)(=O)c2ccc(N)cn2)c1 (single isomer, unassigned) [Example 268, 5-amino-N-[3-(R or S)-[1-[5,6-dihydro-4-hydroxy-2-oxo-6-(2-phenethyl)-6-(R or S)-(3,3,3-trifluoropropyl)-2H-pyran-3-yl]-2,2-dimethylpropyl]phenyl]-2-pyridinesulfonamide]",pKi,[1],9.08
"CCC(C1=C(O)CC(CCc2ccccc2)(CCc2ccccc2)OC1=O)c1cccc(NS(=O)(=O)c2cc(C(F)(F)F)ccn2)c1 (single isomer, unassigned) [Example 289, 4-Trifluoromethyl-N-[3-(R or S)-[1-[4-hydroxy-2-oxo-6,6-di-phenethyl-5,6-dihydro-2H-pyran-3-yl]-propyl]-phenyl]-2-pyridinesulfonamide]",pKi,[1],9.88
"CCC[C@@]1(CCc2ccccc2)CC(O)=C([C@@H](c2cccc(NS(=O)(=O)c3ccc(N)cn3)c2)C(C)(C)C)C(=O)O1 (single isomer, unassigned) [Example 312, 5-Amino-N-[3(R or S)-(1-[5,6-dihydro-4-hydroxy-2-oxo-6(R or S)-(2-phenylethyl)-6-propyl-2H-pyran-3-yl]-2,2-dimethylpropyl)-phenyl]-2-pyridinesulfonamide]",pKi,[1],9.59
"CC(C)(C)C(C1=C(O)CC(CCc2ccccc2)(CCC(F)(F)F)OC1=O)c1cccc(NS(=O)(=O)c2ccc(C#N)cn2)c1 (single isomer, unassigned) [Example 266, 5-cyano-N-[3-(R or S)-[1-[5,6-dihydro-4-hydroxy-2-oxo-6-(2-phenethyl)-6-(R or S)-(3,3,3-trifluoropropyl)-2H-pyran-3-yl]-2,2-dimethylpropyl]phenyl]-2-pyridinesulfonamide]",pKi,[1],10.48
